This is an account of results in patent US4017487A, “7β-(D-5-amino-5-carboxyvaleramido )-7-methoxy-3-substituted-3-cephem-4-carboxylic acid antibiotics” (priority 1974, dated 1977).

Data set [1] concerns gram-negative and gram-positive bacteria. Put plainly: Antibacterial activity (general statements). The data set is classed as cell-based.
The test system of a further data set is Proteus vulgaris MB-838. Put plainly: Disc-plate assay using Proteus vulgaris.
The test system of a further data set is Vibrio percolans MB-1272. Put plainly: Disc-plate assay using Vibrio percolans.
Data set [2] deals with Proteus morganii 356. Put plainly: In vivo mouse protection test, cephalosporin-resistant clinical isolate. Also on record: species or system white Swiss mice. As to conditions: s.c. × 2 doses. The source says: (§1) Methods: The method employed in this characterization is as follows: Female white Swiss mice, average weight 20-23 grams, were infected intraperitoneally with 3-20 times the number of organisms calculated to be lethal for 50% of the infected control animals (3-20 LD50 doses). At the time of infection and again six hours later, therapy was given by the designated route. Controls of the virulence of the culture and the toxicity of the antibiotic for uninfected mice were included in the tests. Seven days after infection the test was considered complete and the amount of the antibiotic (I) that would be required to protect 50% of the infected and treated animals was calculated by the method of Knudsen and Curtis; J. Amer. Stat. Assoc. Vol. 42: page 282 (1947).
In addition to the aforementioned in vivo trials of the product, a clinical isolate of Proteus morganii 356 which is resistant to cephalosporins and capable of degrading cephalosporin C, was employed in a mouse protection test performed in the same manner as reported above.

Another data set has as its system Proteus morganii 3202. Put plainly: In vivo mouse protection test. Also on record: species or system white Swiss mice. As to conditions: 4000 mg. × 2 doses.
From the text: as §1
The method employed in these studies is the same as described above with regard to the in vivo characterization of 810A. The results of these tests are described below in Table XIb:
Administration was by subcutaneous injection. At the completion of the test period, usually seven days after administration, the amount of product required to protect 50% of the mice (ED50) from this otherwise fatal injection was calculated: […]

Data set [3] concerns Aerobacter cloacae (MB-2646). Put plainly: Bacterial inactivation, cell-free extract. The data set is classed as biochemical. As to conditions: for Antibiotic Activity Remaining: starting 250 μg./ml. The protocol:
The ability of Antibiotic 810A and cephalosporin C to withstand the degradative effect of the culture Aerobacter cloacae (MB-2646) was also determined. This culture is gram-negative and resistant to cephalosporin C. […] The source of the inactivating substance is a 1:160 dilution of the filtrate of an 18 hour 37° C. shake culture of Aerobacter cloacae MB-2646 in nutrient broth containing 0.2% yeast extract. Table XIV, infra, indicates the percent inactivation of Antibotic 810A, cephalothin, cephaloridine and cephalosporin C on Vibrio percolans (MB-1272) via this method:
Using the same assay procedure as described above, Table XV, infra, indicates the relative resistance of Antibiotic 810A to enzymatic inactivation by Aerobacter cloacae. The starting concentration is 250 μg./ml. Results are expressed in μg./ml.

For another data set, the system named is penicillinase. As to conditions: cited from earlier work.
Data set [4] concerns gram-negative and gram-positive bacteria. As to conditions: cited from earlier work.
In data set [5] the test system is Alcaligenes viscosus (MB-12). Put plainly: Bacterial inactivation, washed bacterial cells. As to conditions: 4 hour incubation; assayed on B. subtilis (MB-964) plates.
Another data set relates to Escherichia coli 236. Put plainly: Bacterial inactivation. As to conditions: four hours; B. subtilis (MB-964); 240 min.
In data set [6] the test system is Proteus morganii 356. Put plainly: Bacterial inactivation. As to conditions: four hours; B. subtilis (MB-964); 240 min.
A further data set concerns Proteus morganii 251. Put plainly: Bacterial inactivation. As to conditions: four hours; B. subtilis (MB-964); 240 min.
The test system of a further data set is Proteus mirabilis 241. Put plainly: Bacterial inactivation. As to conditions: four hours; B. subtilis (MB-964); 240 min.
Data set [7] has as its system Alcaligenes faecalis (MB-9). As to conditions: known property of the organism; cited from earlier work.
For data set [8], the system named is Alcaligenes faecalis (MB-9). As to conditions: alcaligenes faecalis cells, 3 h.
Data set [9] relates to gram-negative and gram-positive infections. Put plainly: In vivo protection against infection (general statements). Also on record: species or system mice.
From the text: as §1
The method employed in these studies is the same as described above with regard to the in vivo characterization of 810A.

Data set [10] relates to degradative bacteria / enzymatic degradation. Put plainly: Resistance to enzymatic degradation / bacterial inactivation (general statements). The data set is classed as biochemical. As to conditions: compared with cephalosporin C. The text has this: Bacterial Inactivation with 810A: An in vitro study was designed to determine the resistance of Antibiotic 810A, to bacterial inactivation as compared with cephalosporin C, cephaloridine and cephalothin.

The next data set concerns Escherichia coli W-MB-60. Put plainly: Special effects spectrum in vitro study, disc-plate (7 mm = no zone). It counts as cell-based. As to conditions: WMB60, 16 h.
The test system of the next data set is Bacillus sp. Put plainly: In vitro disc-plate agar diffusion, antibacterial spectrum (7 mm = no zone). It counts as cell-based. As to conditions: 16 h, 192 μg/ml, inoculum 5 ml/150 ml, 25° C., read-out: Inhibition Zone Diameter. (In general: Agar diffusion results depend on both activity and mobility in agar.)
The subject of a further data set is Bacillus subtilis. The data set is described as above. It counts as cell-based. As to conditions: 16 h, read-out: Inhibition Zone Diameter.
A further data set deals with Xanthomonas vesicatoria. The data set is described as above. As to conditions: 16 h, read-out: Inhibition Zone Diameter. The data set is classed as cell-based.
A further data set concerns Escherichia coli. Put plainly: In vitro disc-plate agar diffusion, antibacterial spectrum (7 mm disc; 7 mm = no inhibition zone). The data set is classed as cell-based. As to conditions: 16 h, 192 μg/ml, inoculum 5 ml/150 ml, 25° C., read-out: Inhibition Zone Diameter.
In another data set the test system is Escherichia coli strains. Put plainly: microbe, parasite or virus in culture. It counts as cell-based. As to conditions: 16 h, 192 μg/ml, Sensitive parent, 25° C., read-out: Inhibition Zone Diameter.
Another data set relates to Proteus vulgaris. Put plainly: In vitro disc-plate agar diffusion, antibacterial spectrum (7 mm = no zone). It counts as cell-based. As to conditions: 16 h, read-out: Inhibition Zone Diameter.
The next data set concerns Salmonella gallinarum. The data set is described as above. The data set is classed as cell-based. As to conditions: Salmonella enterica, 16 h, 192 μg/ml, inoculum 10 ml/150 ml, 25° C., read-out: Inhibition Zone Diameter.
Setting [11] is: 2 hour incubation, assay organism B. subtilis 964.
The mark [12] stands for this setting: 2 hour incubation, assay organism V. percolans 1272.
Where [13] appears, read: 2 hour incubation, cell-free extract, assayed on V. percolans (MB-1272) plates.

Where a name gives a salt, the structure may show the parent alone. Read-outs that look alike come from different tables or passages of the source. Where only a bound is given, the exact number is not on record here.

Regarding `CO[C@@]1(NC(=O)CCC[C@@H](N)C(=O)O)C(=O)N2C(C(=O)O)=C(CN=[N+]=[N-])CS[C@@H]21` [7β-(D-5-amino-5-carboxyvaleramido)-3-(azidomethyl)-7-methoxy-3-cephem-4-carboxylic acid], the bioactivity result in [1] (several strains of bacteria) is given as “possessed bioactivity against several strains of bacteria”.

Consider `COC(=Cc1ccc(O)cc1)C(=O)OCC1=C(C(=O)O)N2C(=O)[C@](NC(=O)CCC[C@@H](N)C(=O)O)(OC)[C@H]2SC1` [7β-(D-5-amino-5-carboxyvaleramido)-3-(α-methoxy-p-hydroxycinnamoyloxymethyl)-7-methoxy-3-cephem-4-carboxylic acid], for which the IC (25 mm zone) with Proteus vulgaris MB-838 (Proteus vulgaris, MB838, read-out: bio-potency (concentration for a 25 mm. zone)) was 18 µg/mL.

Consider `CO[C@@]1(NC(=O)CCC[C@@H](N)C(=O)O)C(=O)N2C(C(=O)O)=C(C)CS[C@@H]21` [7β-(D-5-amino-5-carboxyvaleramido)-3-methyl-7-methoxy-3-cephem-4-carboxylic acid], for which the bioactivity entry with Vibrio percolans MB-1272 (50 μg/ml) is recorded as “Inactive”.

For the molecule `CO[C@@]1(NC(=O)CCC[C@@H](NC(=O)OC(C)(C)C)C(=O)O)C(=O)N2C(C(=O)O)=C(COC(N)=O)CS[C@@H]21` [7β-(D-5N-tert-tertiary-butoxycarbonylamino-5-carboxyvaleramido)-3-(carbamoyloxymethyl)-7-methoxy-3-cephem-4-carboxylic acid], the “biopotency relative to starting material” value in data set [1] (relative to disodium salt of 842A) is given as “one-tenth”.

Take `O=C(Cc1cccs1)N[C@@H]1C(=O)N2C(C(=O)[O-])=C(C[n+]3ccccc3)CS[C@H]12` [Cephaloridine]: the “ED50 by Subcutaneous Route × 2 Doses (average of Two Trials)” value in the data set with Proteus morganii 356 [2] was 9,270 μg. Further, the “protection against Proteus morganii 3202” value with Proteus morganii 3202 is listed as “failed to protect”. Further, the “Antibiotic Activity Remaining” value in data set [3] (setting [11]) and in data set [3] (setting [12]) was less than 10 µg/mL each time. In addition, in data set [3] (aerobacter cloacae culture filtrate, 2 h), the “percent inactivation” value was determined as 96%.

On to `CC(=O)OCC1=C(C(=O)O)N2C(=O)[C@@H](NC(=O)CCC[C@@H](N)C(=O)O)[C@H]2SC1` [Cephalosporin C], for which the “percent inactivation” value in [3] (setting [13]) was 96%; in data set [5], more than 99%; in the data set with Escherichia coli 236, more than 99%; in the data set on Proteus morganii 356 [6], more than 99%; in the data set on Proteus morganii 251, more than 99%; in the data set on Proteus mirabilis 241 it was 72%. Besides, the resistance to penicillinase result in the data set on penicillinase is recorded as “inherent resistance to penicillinase”. The antibacterial activity result in data set [4] is “only moderately active”; in data set [4] (listed as cepahlosporin C), “relatively low antibacterial activity”. Further, in data set [7], the “inactivation of cephalosporin C” value is recorded as “completely inactivate”.

For `CC(=O)OCC1=C(C(=O)O)N2C(=O)[C@@H](NC(=O)Cc3cccs3)[C@H]2SC1` [Cephalothin], the “ED50 by Subcutaneous Route × 2 Doses (average of Two Trials)” value in the data set with Proteus morganii 356 [2] is recorded as > 20,000 μg. Also, the “protection against Proteus morganii 3202” value in the data set on Proteus morganii 3202 is recorded as “failed to protect”. Besides, the “percent inactivation” value in data set [3] (setting [13]) is on record as 66%; in data set [8] it was 50%. For the same molecule, the “Antibiotic Activity Remaining” value in data set [3] (setting [11]) turned out to be 140 µg/mL; in data set [3] (setting [12]), 85 µg/mL.

`COC(=Cc1ccc(OS(=O)(=O)O)cc1)C(=O)OCC1=C(C(=O)O)N2C(=O)[C@](NC(=O)CCC[C@@H](N)C(=O)O)(OC)[C@H]2SC1` [Ic, 7β-(D-5-amino-5-carboxyvaleramido)-3-(α-methoxy-p-sulfooxycinnamoyloxymethyl)-7-methoxy-3-cephem-4-carboxylic acid]: the “in vivo protection / activity” value in [9] (mouse, in vivo) was “when administered intraperitoneally, it is effective against a variety of gram-negative and gram-positive infections”. Moreover, in data set [9] (oral), the “oral protection against infections” value is “protects against infections due to Proteus vulgaris”. Further, the “Total Biological Units” value in the data set on Proteus vulgaris MB-838 (Example 6 separation) is 10,000 units. In data set [10], the “resistance to enzymatic degradation” value is listed as “more resistant to enzymatic degradation than cephalosporin C”.

For the molecule `CC1(C)S[C@@H]2[C@H](NC(=O)Cc3ccccc3)C(=O)N2[C@H]1C(=O)O` [Penicillin G], in the data set with penicillinase, the resistance to penicillinase entry was “in the presence of penicillinase it is degraded to a form which is ineffective against most pathogens”.

For the molecule `CO[C@@]1(NC(=O)CCC[C@@H](N)C(=O)O)C(=O)N2C(C(=O)O)=C(COC(N)=O)CS[C@@H]21` [Sodium Salt], the zone of inhibition at 192 µg/mL was 24 mm in the data set on Escherichia coli W-MB-60 (pH 9, read-out: Inhibition Zone Diameter, 192 μg/ml, 0.1 M Phosphate Buffer pH 9); 18 mm in the data set on Escherichia coli W-MB-60 (read-out: Inhibition Zone Diameter, 192 μg/ml, Cation Exchange Resin (Dow ET 91) 1%); 18 mm in the data set with Escherichia coli W-MB-60 (read-out: Inhibition Zone Diameter, 192 μg/ml, Control (no additions)); 7 mm in the data set on Bacillus sp.; 18 mm in the data set on Bacillus subtilis; 17 mm with Xanthomonas vesicatoria. For the same molecule, the zone of inhibition at 192 µg/mL worked out at 18 mm in the data set on Escherichia coli, 18 mm in the data set on Escherichia coli strains, 24 mm in the data set on Proteus vulgaris and 25 mm in the data set with Salmonella gallinarum. Moreover, in the data set with Vibrio percolans MB-1272 (25 mm. zone, listed as Sodium Salt of 842A), the “concentration giving a 25 mm. zone” value came out at 5 µg/mL.
